Experimental data: ChEMBL document CHEMBL1201862, “PubChem BioAssay data set” (2004)
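Cells were grown in 96-well plates and exposed to each compound for 48 hours at five concentrations; endpoints were interpolated linearly between bracketing concentrations, or set to the highest concentration if not reached. Abbreviation: GI50, concentration required for 50% inhibition of growth.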 Calls of active or inactive are those of the source. Rule as the data show it: active = GI50 up to about 1.1 µM and inactive = higher.

Columns and labels:
Test in all cases: NCI anticancer screen, dose series, 48 h
LXFL 529 = tested on: LXFL 529
HOP-18 = tested on: HOP-18
DMS-114 = tested on: DMS-114
KM-20L2 = tested on: KM-20L2
XF498 = tested on: XF498
RXF 631 = tested on: RXF 631
SNB-78 = tested on: SNB-78
M19-MEL = tested on: M19-MEL
DLD-1 = tested on: DLD-1

SMILES	GI50 (LXFL 529)	GI50 (HOP-18)	GI50 (DMS-114)	GI50 (KM-20L2)	GI50 (XF498)	GI50 (RXF 631)	GI50 (SNB-78)	GI50 (M19-MEL)	GI50 (DLD-1)
C#CC(C)(C)Oc1cc(O)c2c(=O)c3ccccc3n(C)c2c1	> 100 µM (inactive)	> 100 µM (inactive)	> 100 µM (inactive)	> 100 µM (inactive)	> 100 µM (inactive)	> 100 µM (inactive)	> 100 µM (inactive)		
CCOC(=O)C1C(c2ccc(Cl)cc2Cl)NC(c2ccc(C)cc2)C(C(=O)OC)S1(=O)=O (configuration not stated)	54.6 µM (inactive)				3.33 µM (inactive)		> 100 µM (inactive)	53.1 µM (inactive)	> 100 µM (inactive)
COc1cccc2c1C(=O)c1c(O)c3c(c(O)c1C2=O)C[C@@](O)(/C(C)=N\O)C[C@@H]3OC1CC(N)C(O)C(C)O1 (some centres not stated)	0.508 µM (active)	2.18 µM (inactive)	0.371 µM (active)	3 µM (inactive)	0.21 µM (active)	2.24 µM (inactive)	1.28 µM (inactive)	0.743 µM (active)	1.95 µM (inactive)
O=[N+]([O-])c1ccc(N=P(c2ccccc2)(c2ccccc2)c2ccccc2)n2nnnc12	48.3 µM (inactive)	> 100 µM (inactive)	72.3 µM (inactive)	> 100 µM (inactive)	32.7 µM (inactive)			82 µM (inactive)	
O=C(Nc1ccccc1C(=O)NC(=O)c1ccccc1NC(=O)c1ccccc1)c1ccccc1		4.49 µM (inactive)	2.17 µM (inactive)	3.15 µM (inactive)	1.69 µM (inactive)				12.5 µM (inactive)
COc1ccc2nc3cc(Cl)ccc3c(NCCC[N+](C)(C)CCCCCCCCCCCCCCCC[N+](C)(C)CCCNc3c4ccc(Cl)cc4nc4ccc(OC)cc34)c2c1	1.79 µM (inactive)	2.42 µM (inactive)	1.89 µM (inactive)	3.3 µM (inactive)		7.14 µM (inactive)		1.97 µM (inactive)	3.11 µM (inactive)
COc1ccc2c(c1)[n+]([O-])c(/C(C)=N/NC(=O)c1ccccc1O)c(C)[n+]2[O-]	> 100 µM (inactive)	> 100 µM (inactive)	> 100 µM (inactive)	> 100 µM (inactive)	81.5 µM (inactive)	> 100 µM (inactive)	> 100 µM (inactive)	> 100 µM (inactive)	> 100 µM (inactive)
O=C(NCCCCCCCCCCCCNC(=O)c1cccc2ccccc12)c1cccc2ccccc12	> 91.4 µM (inactive)	> 61.1 µM (inactive)	> 100 µM (inactive)	> 100 µM (inactive)	> 47.8 µM (inactive)	31.2 µM (inactive)	> 47 µM (inactive)	> 100 µM (inactive)	51.4 µM (inactive)
N#Cc1nc(Nc2ccc([N+](=O)[O-])cc2)sc1N	8.69 µM (inactive)	61.2 µM (inactive)		23.9 µM (inactive)	17.3 µM (inactive)	11.4 µM (inactive)	32.2 µM (inactive)	25.2 µM (inactive)	23.4 µM (inactive)
C=C1C(=O)OC2C/C(C)=C/CC/C(C)=C/CCC3(COC(C)=O)OC3CC12 (configuration not stated)	2.77 µM (inactive)	11.2 µM (inactive)	4.09 µM (inactive)	6.93 µM (inactive)	7.11 µM (inactive)		7.71 µM (inactive)	13.1 µM (inactive)	3.81 µM (inactive)
COc1cccc2c1C(=O)c1c(O)c3c(c(O)c1C2=O)C[C@@](O)(C(=O)CO)CC3OC1CC(O)C(O)C(C)O1 (some centres not stated)	0.461 µM (active)	0.277 µM (active)	0.188 µM (active)	0.592 µM (active)	0.102 µM (active)	0.188 µM (active)	1.28 µM (inactive)	0.218 µM (active)	0.385 µM (active)
COc1ccccc1NC(=O)NS(=O)(=O)c1ccccc1	> 100 µM (inactive)	48.2 µM (inactive)	> 100 µM (inactive)	> 100 µM (inactive)			> 100 µM (inactive)	> 100 µM (inactive)	> 100 µM (inactive)
O=C1C2C3C=C4c5ccccc5N(c5ccccc5)C4([C@@H]2C(=O)N1c1ccc(F)cc1)[C@H]1C(=O)N(c2ccc(F)cc2)C(=O)[C@@H]31 (some centres not stated)		> 100 µM (inactive)	> 100 µM (inactive)		> 100 µM (inactive)		82.2 µM (inactive)	> 100 µM (inactive)	> 100 µM (inactive)
N#Cc1cccc2c1Nc1ccccc1S2		37.3 µM (inactive)	81.1 µM (inactive)	> 100 µM (inactive)	41.8 µM (inactive)		67.9 µM (inactive)	> 100 µM (inactive)	> 100 µM (inactive)
C=C1CC2OC(=O)C(=C)C2C(O)C2C(=C)CCC12 (configuration not stated)	4.33 µM (inactive)	15.9 µM (inactive)	4.55 µM (inactive)				6.56 µM (inactive)	5.19 µM (inactive)	10.1 µM (inactive)
COc1c(I)c(OC)c2c(c1I)O[C@@H]1OCC[C@H]21	26.9 µM (inactive)	24.3 µM (inactive)	26.5 µM (inactive)	65.3 µM (inactive)	30.3 µM (inactive)	29.9 µM (inactive)	57.9 µM (inactive)	23.8 µM (inactive)	> 100 µM (inactive)
COc1cc(Nc2cnc3cc(C(F)(F)F)ccc3n2)cc(OC)c1OC	> 100 µM (inactive)	> 100 µM (inactive)		> 100 µM (inactive)	> 100 µM (inactive)	> 100 µM (inactive)	> 100 µM (inactive)	> 100 µM (inactive)	> 100 µM (inactive)
Cc1ccc(S(=O)(=O)NC(=O)C#CCOC2CCCCO2)cc1 (configuration not stated)	> 100 µM (inactive)	> 100 µM (inactive)	> 100 µM (inactive)	> 100 µM (inactive)	> 100 µM (inactive)	> 100 µM (inactive)		> 100 µM (inactive)	> 100 µM (inactive)
CCCCOC(=O)NC(=O)c1cn(CCCOC(=O)CCCCCCCCC(=O)OCCCn2cc(C(=O)NC(=O)OCCCC)c(=O)[nH]c2=O)c(=O)[nH]c1=O	> 100 µM (inactive)	24.9 µM (inactive)	> 100 µM (inactive)	> 100 µM (inactive)	> 100 µM (inactive)	98.6 µM (inactive)		> 100 µM (inactive)	> 100 µM (inactive)
CC(C)N(C(=O)C12C3C4C1C1C2C3C41C(=O)C(C)(C)C)C(C)C (configuration not stated)	> 100 µM (inactive)		52.5 µM (inactive)	> 100 µM (inactive)	> 100 µM (inactive)		> 100 µM (inactive)	> 100 µM (inactive)	> 100 µM (inactive)
CC1=C(C(=O)NCc2ccccc2)C(/C=C/c2ccccc2)C(C(=O)NCc2ccccc2)=C(C)N1	> 100 µM (inactive)	> 100 µM (inactive)	> 100 µM (inactive)	> 100 µM (inactive)	> 100 µM (inactive)		> 100 µM (inactive)	> 100 µM (inactive)	> 100 µM (inactive)
O=C(c1ccccc1)c1nc2ccc(Cl)cc2c2c1Cc1ccccc1-2	> 100 µM (inactive)	> 100 µM (inactive)	> 100 µM (inactive)	> 100 µM (inactive)	> 100 µM (inactive)			> 100 µM (inactive)	> 100 µM (inactive)
Cc1cc(Cl)ccc1NC(=O)CCCC(=O)C1C/C(=N/O)CC/C1=N\O (configuration not stated)	> 100 µM (inactive)	> 100 µM (inactive)	> 100 µM (inactive)	> 100 µM (inactive)	> 100 µM (inactive)	> 100 µM (inactive)	> 100 µM (inactive)	> 100 µM (inactive)	> 100 µM (inactive)
